Measured values reported in article PMC10945739, “Exploring Cassia mimosoïdes as a promising natural source of steroids with potent anti-cancer, urease inhibition, and antimicrobial properties” (RSC Advances, 2024).
Converted amounts (≈) assume the structure as drawn. Like-named read-outs stand apart in the source and are kept apart here.

Tests used:
Jack bean urease = Jack bean urease (Canavalia ensiformis, UniProt P07374); experiment: biochemical; format: biochemical; conditions: for inhibition at 500 µM: pH 6.8, read-out: % Inhibition of urease
Jack bean urease, sequence (P07374 whole entry, looked up): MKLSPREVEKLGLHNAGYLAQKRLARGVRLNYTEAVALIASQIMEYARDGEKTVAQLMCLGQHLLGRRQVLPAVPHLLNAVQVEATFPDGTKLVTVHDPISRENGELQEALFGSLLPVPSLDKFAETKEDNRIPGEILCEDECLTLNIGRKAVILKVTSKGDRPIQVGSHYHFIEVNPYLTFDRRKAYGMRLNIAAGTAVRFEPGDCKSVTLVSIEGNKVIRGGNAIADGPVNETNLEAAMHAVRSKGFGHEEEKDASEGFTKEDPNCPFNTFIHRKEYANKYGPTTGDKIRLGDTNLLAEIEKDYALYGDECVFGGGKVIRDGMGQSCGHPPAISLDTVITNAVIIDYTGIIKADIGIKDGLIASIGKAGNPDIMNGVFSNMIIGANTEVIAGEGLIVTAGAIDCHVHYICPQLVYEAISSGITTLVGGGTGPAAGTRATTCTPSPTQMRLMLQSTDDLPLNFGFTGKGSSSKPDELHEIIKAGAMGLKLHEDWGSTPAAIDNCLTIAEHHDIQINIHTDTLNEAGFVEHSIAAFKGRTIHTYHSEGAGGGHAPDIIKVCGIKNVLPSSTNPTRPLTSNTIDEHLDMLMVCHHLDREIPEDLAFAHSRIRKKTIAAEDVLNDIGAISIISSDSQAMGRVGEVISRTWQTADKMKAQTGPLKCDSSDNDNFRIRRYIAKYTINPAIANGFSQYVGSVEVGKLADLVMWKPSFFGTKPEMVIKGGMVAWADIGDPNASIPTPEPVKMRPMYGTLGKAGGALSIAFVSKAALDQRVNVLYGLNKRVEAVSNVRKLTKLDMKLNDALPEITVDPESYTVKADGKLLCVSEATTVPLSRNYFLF
Experimental: The inhibition potential of the isolated compounds against urease was investigated using a SpectraMax M2 reader using 96-well microplates.
The kinetic assay involved preparing varying concentrations of both the test compound and the substrate (urea), spanning 0 μM, 5 μM, 10 μM, 15 μM, and 20 μM. The resulting data was utilized to construct a Lineweaver–Burk plot.
In 96-well plates were incubated at 37 °C for 15 min, reaction mixtures consisting of 25 μL of test compounds (each 0.5 mM), 25 μL of enzyme solution (Jack bean urease) and 55 μL of buffers containing 20.79 mM urea. The indophenol method described by Weatherburn[21] was used to determine urease inhibitor activity by measuring ammonia production. Briefly, to each well were added 70 μL of alkaline reagent (0.5% w/v NaOH and 0.1% active chloride, NaOCl) and 45 μL of phenolic reagent (1% w/v phenol and 0.005% w/v sodium nitroprusside). The microplate reader (Molecular Devices, USA) was used to measure the increase in absorbance at 650 nm after 50 min. A final volume of 245 μL was required to perform all reactions in a triplicate. The results (absorbance change per minute) were processed using SoftMax Pro software (Molecular Devices, USA). All assays were performed at pH 6.8. Inhibition percentages were calculated from the formula% Inhibition = 100 − (Abs(sample)/Abs(control)) × 100where “A” is the absorbance of the “test well” as well as the “control”. Thiourea was used as a standard.

[1] = tested on: human HepG2 hepatic cancer cells; experiment: MTT cell viability assay; format: cell-based; conditions: Homo sapiens, HepG2, 48 h
Experimental: The human liver cells were cultivated in Dulbecco's modified Eagle medium (DMEM) in which 100 U mL^−1 penicillin, 10% fetal bovine and […] streptomycin were added and kept at 37 °C in a […] carbon dioxide induced humidified environment. The human liver cells prepared as per above procedure were then treated with synthesized compounds diluted to 0.05% DMSO concentration.
Using MTT assay, the % viability of cancer cells 36 was evaluated. According to the standard procedure, HepG2 cells were treated with various dosages of synthesized compounds for 48 hours each. The cells were then incubated for 4 hours at 37 °C with 10μ MTT reagent (5 mg mL^−1). Next, in 150 μL DMSO was added to dissolve formazan crystals. The λmax was recorded at 409 nm in a microplate reader (thermos scientific).

Alternaria alternata = experiment: Antifungal bioassay, poisoned medium technique; format: cell-based; conditions: 168 h, read-out: MIC values against Alternaria alternata
Experimental: (§1) Anti-microbial assays of the isolated componds were performed against the selected strain of fungi i.e., Alternaria alternata, Aspergillus fumigatus, Aspergillus niger, and Penicillium citrii.
(§2) Alternaria alternata, Aspergillus fumigatus, Aspergillus niger, and Penicillium citrii strains were obtained from the Biotechnology lab at COMSATS University Islamabad. The antifungal activity of isolated compounds was assessed using poisoned medium technique. Two percent malt extract agar medium was generated by autoclaving at 121 °C for 30 minutes. Weighed volumes of the compounds were dissolved in […] of sterilized distilled water and put to flasks containing 59.5 mL of malt extract agar medium while they were still molten to obtain final concentrations of 100, 300, 500, 700, 900, and 1000 ppm. The control received the same amount of distilled water. Each sterile Petri plate with a diameter of 90 mm was filled with 20 mL of each medium and allowed to solidify. 5 mm diameter mycelial discs were produced from the tips of 5–7 day-old cultures of the four test fungus species and put in the center of each Petri dish using a sterile cork borer. Every treatment was duplicated three times. Plates were cultured in an incubator at 25 ± 2 °C for seven days. To calculate the rate of fungal growth, the three diameters of each colony were measured at right angles and averaged. Table 2 MIC values (μM) of the isolated compounds against Alternaria alternata, Aspergillus fumigatus, Aspergillus niger, and Penicillium citrii strains.[19]

Aspergillus fumigatus = experiment: Antifungal bioassay, poisoned medium technique; format: cell-based; conditions: 168 h, read-out: MIC values against Aspergillus fumigatus
Experimental: as §1, §2

Aspergillus niger = experiment: Antifungal bioassay, poisoned medium technique; format: cell-based; conditions: 168 h, read-out: MIC values against Aspergillus niger
Experimental: as §1, §2

Penicillium citrii = experiment: Antifungal bioassay, poisoned medium technique; format: cell-based; conditions: 168 h, read-out: MIC values against Penicillium citrii
Experimental: as §1, §2

H.pylori = experiment: Antibacterial activity, agar well diffusion method; format: cell-based, Helicobacter pylori; conditions: Helicobacter pylori; abstract; read-out: MIC against H. pylori
Text: Antibacterial activity of the isolated and synthesized compounds was perform using agar well method. Three bacterial strains selected for this experiment were H.pylori, B. subtilis and S. aureus, for all of three strains compounds show good to mederate inhibition. […] The presence of H. pylori in the stomach has been associated with a range of gastric disorders, including peptic ulcers, gastritis, and an increased risk of gastric cancer. The bacterium's ability to manipulate the gastric environment through urease activity underscores its role in the development and progression of these conditions. Different studies have targeted H. pylori and its urease activity as potential avenues for therapeutic intervention and disease management (Fig. 4).
The agar well diffusion method evaluated every compound separately. Each sterile Petri plate was aseptically filled with 20 mL of the agar medium, which was then […]. The media then solidified at room temperature. Various bacterial strains were put to agar plates using a sterile cotton swab. A 6 mm-diameter well was drilled using a sterilized cork borer. Each isolated compound was dissolved in 1 mL of a 20% DMSO solution. In a well with a diameter of 6 mm, […] of the standard drug and isolated compounds were added. […] The zone of inhibition was graphed and quantified in millimeters.[20]

S. aureus = experiment: Antibacterial activity, agar well diffusion method; format: cell-based, Staphylococcus aureus; conditions: Staphylococcus aureus; abstract; read-out: MIC against S. aur
Experimental: The agar well diffusion method evaluated every compound separately. Each sterile Petri plate was aseptically filled with 20 mL of the agar medium, which was then autoclaved at 120 °C to destroy any germs. The media then solidified at room temperature. Various bacterial strains were put to agar plates using a sterile cotton swab. A 6 mm-diameter well was drilled using a sterilized cork borer. […] In a well with a diameter of 6 mm, 20 mL of the standard drug and isolated compounds were added. At 37 °C, the test plates were incubated for 24 hours. The test plates were incubated at 37 °C for 24 hours. The standard disc containing 50 mg of ciprofloxacin served as a positive control for antibacterial activity, and DMSO served as a negative control.

[2] = HepG2, MTT, 48 hours, at 200 μg
[3] = poisoned medium, 25 ± 2 °C, seven days

With `Cc1cc(O)c2c(c1)C(=O)c1cccc(O)c1C2=O` [Compound 12, Chrysophanol] the IC50 (Jack bean urease) was 5.92 ± 0.25 µM, the inhibition at 500 µM (Jack bean urease) was 78.2% and the viability at 200 µg [1, 2] was 59.3 ± 2.2%.

For `O=c1cc(-c2ccc(O)c(O)c2)oc2c([C@@H]3O[C@H](CO)[C@@H](O)[C@H](O)[C@H]3O)c(O)cc(O)c12` [Luteolin-8-C-β-D-glucopyranoside], the MIC (Alternaria alternata) was 0.021 ± 0.005 µM (≈ 9.42 ng/mL), the MIC (Aspergillus fumigatus) was 0.014 ± 0.005 µM (≈ 6.28 ng/mL) and the MIC (Aspergillus niger) was 0.013 ± 0.006 µM (≈ 5.83 ng/mL). It also gave an MIC (Penicillium citrii) of 0.015 ± 0.008 µM (≈ 6.73 ng/mL).

In the case of `O=c1cc(-c2ccc(O)cc2)oc2c([C@@H]3O[C@H](CO)[C@@H](O)[C@H](O)[C@H]3O)c(O)cc(O)c12` [Compound 5, Apigenin-8-C-β-D-glucopyranoside], the IC50 (Jack bean urease) is reported as 4.73 ± 0.22 µM, the inhibition at 500 µM (Jack bean urease) is reported as 77.5% and the viability at 200 µg [1] is reported as 94.7 ± 7.4%.

In the case of `C=C(CCC(=CC)C(C)C)C1CCC2C3=CCC4C(C)C(O)CCC4(C)C3CCC12C` (stereo not shown) [Compound 1, 21-methylene-24-ethylidene lophenol], the MIC (H.pylori) is reported as 0.28 µg/mL (≈ 0.659 µM), the MIC (S. aureus) is reported as 0.12 µg/mL (≈ 0.283 µM) and the IC50 (Jack bean urease) is reported as 1.02 ± 0.35 µM. The inhibition at 500 µM (Jack bean urease) was 82.3% and the “mode of inhibition, Lineweaver–Burk plot” value (Jack bean urease; urea and compound 0–20 μM) was “competitive”.

`COc1cc(O)cc2oc(-c3ccc(O)c(O)c3)cc(=O)c12` [Compound 4, Luteolin-5-methyl ether] was tested, and the IC50 (Jack bean urease) was 3.87 ± 0.24 µM, the inhibition at 500 µM (Jack bean urease) was 82.7% and the viability at 200 µg [1, 2] was 90.5 ± 2.15%.

With `O=c1cc(-c2ccc(O)c(O)c2)oc2c([C@@H]3O[C@H](CO)[C@@H](O)[C@H](O)[C@H]3O)c(O)cc(O)c12` [Compound 6, Luteolin-8-C-β-D-glucopyranoside] the IC50 (Jack bean urease) was 5.03 ± 0.12 µM, the inhibition at 500 µM (Jack bean urease) was 71.5% and the viability at 200 µg [1, 2] was 89.2 ± 2.5%.

Work on `COc1cc(O)c2c(c1)C(=O)c1cc(C)cc(O)c1C2=O` [Compound 13, Physcion] yielded an IC50 (Jack bean urease) of 6.24 ± 0.3 µM, an inhibition at 500 µM (Jack bean urease) of 63.5% and a viability at 200 µg [1] of 87.4 ± 2.55%.

Work on `CCC(CCC(C)C1CCC2C3CC(O)C4=CC(=O)CCC4(C)C3CCC12C)C(C)C` (stereo not shown) [Synthesized compound] yielded an inhibition at 500 µM (Jack bean urease) of 69% and an IC50 (Jack bean urease; read-out: IC50 ± SEM, urease, pH 6.8) of 8.03 ± 0.19 µM.

With `O=c1cc(-c2ccc(O)c(O)c2)oc2cc(O)ccc12` [Compound 3, 3′,4′,7-Trihydroxyflavone] the MIC (Alternaria alternata; [3]) was 0.056 ± 0.001 µM (≈ 15.1 ng/mL), the MIC (Aspergillus fumigatus; [3]) was 0.013 ± 0.003 µM (≈ 3.51 ng/mL) and the MIC (Aspergillus niger; [3]) was 0.032 ± 0.005 µM (≈ 8.65 ng/mL). For the same molecule, the MIC (Penicillium citrii; [3]) was 0.016 ± 0.01 µM (≈ 4.32 ng/mL).

Molecule `O=c1cc(-c2ccc(O)cc2)oc2c([C@@H]3O[C@H](CO)[C@@H](O)[C@H](O)[C@H]3O)c(O)cc(O)c12` [Apigenin-8-C-β-D-glucopyranoside] has an MIC (Alternaria alternata) of 0.025 ± 0.007 µM (≈ 10.8 ng/mL), an MIC (Aspergillus fumigatus) of 0.01 ± 0.006 µM (≈ 4.32 ng/mL) and an MIC (Aspergillus niger) of 0.015 ± 0.001 µM (≈ 6.49 ng/mL). It also gave an MIC (Penicillium citrii) of 0.01 ± 0.006 µM (≈ 4.32 ng/mL).

`CC[C@H](CC[C@@H](C)C1CCC2C3CC=C4C[C@@H](O[C@@H]5O[C@H](CO)[C@@H](O)[C@H](O)[C@H]5O)CC[C@]4(C)C3CC[C@@]21C)C(C)C` (stereo partly drawn) [Compound 16, β-Sitosterol 3-O-β-D-glucopyranoside] showed an inhibition at 500 µM (Jack bean urease) of 19.5% and a viability at 200 µg [1, 2] of 96.4 ± 2.2%.

With `COc1cc(O)cc2oc(-c3ccc(O)c(O)c3)cc(=O)c12` [Luteolin-5-methyl ether] the MIC (Alternaria alternata; [3]) was 0.03 ± 0.006 µM (≈ 9.01 ng/mL), the MIC (Aspergillus fumigatus; [3]) was 0.04 ± 0.002 µM (≈ 12 ng/mL) and the MIC (Aspergillus niger; [3]) was 0.01 ± 0.006 µM (≈ 3 ng/mL). The MIC (Penicillium citrii; [3]) was 0.06 ± 0.004 µM (≈ 18 ng/mL).

With `NC(N)=S` [thiourea, reference compound] the IC50 (Jack bean urease; pH 6.8, read-out: IC50 ± SEM, urease) was 18.61 ± 0.11 µM, the IC50 (Jack bean urease; read-out: IC50, urease (conclusions)) was 18.61 ± 0.11 µM and the “% Inhibition of urease” value (Jack bean urease; test compounds each 0.5 mM, pH 6.8) was 86.73%.
